In patent publication US20090053294A1, “Anti Mineralocorticoid Therapy of Infection” (priority 2005, published 2009):

Assays:
[1] = tested on: monocytotropic HIV-1 isolates; experiment: Anti-HIV activity in fresh human monocyte-macrophages (p24 ELISA); type: cell-based; details: MOI 0.1, p24 ELISA day 7 post-infection
Protocol: (§1) For isolation of adherent cells, 3×10^6 non-PHA stimulated peripheral blood cells are resuspended in Hanks buffered saline (with calcium and magnesium) supplemented with 10% human AB serum. The cells are placed in a 96-well microtiter plate at 37° C. for 2 hours. Non-adherent cells are removed by vigorously washing six times. The adherent cells are cultured for 7 days in RPMI 1640 tissue culture medium with 15% fetal bovine serum. The cultures are carefully monitored for confluency during this incubation period. Infection of the cells is performed with monocytotropic HIV-1 isolates. High titer pools of each of these viruses are harvested from Infected cultures of peripheral blood adherent cells and frozen in 1.0 ml aliquots at […]. […] Compounds to be evaluated in the monocyte-macrophage assay are added to the monolayers shortly before infection in order to maximize the potential for identifying active compounds.
(§2) At 2 days post-infection, the medium is decanted and the cultures washed twice with complete medium in order to remove excess virus. […] Control curves are generated in each assay to accurately quantitate the amount of capsid protein in each sample. Data is obtained by spectrophotometric analysis at 450 nm using a Molecular Devices Vmax plate reader. P24 concentrations are calculated from the optical density values by use of the Molecular Device software package Soft Max.

[2] = tested on: HIV-1; details: PBL, MOI 0.2, day 7, RT activity in supernatant
Protocol: Fresh human peripheral blood lymphocytes (PBL) are isolated from voluntary Red Cross donors, seronegative for HIV and HBV. Leukophoresed blood is diluted 1:1 with Dulbecco's phosphate buffered saline (PBS) and layered over 14 mL of Ficoll-Hypaque density gradient in a 50mi centrifuge tube. Tubes are then centrifuged for 30 minutes at 600 Xg. Banded PBLs are gently aspirated from the resulting interface and subsequently washed 2× with PBS by low speed centrifugation. After final wash, cells are enumerated by trypan blue exclusion are re-suspended at 1×10^7/ml in RPMI 1640 with 15% fetal bovine serum (FBS), 2 mM L-glutamine, 4 ug/ml PHA-P and allowed to incubate for 48-72 hours at 37″C. After incubation, PBLs are centrifuged and reset in RPMI 1640 with 15% FBS, 2 mM L-glutamine, 100 U/ml penicillin, 100 ug/ml streptomycin, 10 ug/ml gentamycin, and 20 U/ml recombinant human IL-2. PBLs are maintained in this medium at a concentration. of 1-2×10^6/ml with biweekly medium changes, until use in assay protocol. […]
In the standard PBL assay (MOI: 0.2), the assay is ended on day 7 following collection of cell free supernatant samples for reverse transcriptase activity assay. […] Opti-Fluor O is added to each filter mat, and incorporated radioactivity is quantitated utilizing a Wallac 1450 Microbetaplus liquid scintillation counter. […]

[3] = tested on: fresh human peripheral blood lymphocytes (PBL); type: cell-based
[4] = tested on: fresh human monocyte-macrophages; experiment: Cytotoxicity in monocyte-macrophages (XTT staining); type: cell-based; details: XTT staining day 7 post-infection
Protocol: as §1, §2

[5] = in vivo; cited from earlier work
[6] = biological target: T1, progesterone receptors (Homo sapiens, UniProt P06401); details: cited from earlier work
T1 sequence (P06401 1-933): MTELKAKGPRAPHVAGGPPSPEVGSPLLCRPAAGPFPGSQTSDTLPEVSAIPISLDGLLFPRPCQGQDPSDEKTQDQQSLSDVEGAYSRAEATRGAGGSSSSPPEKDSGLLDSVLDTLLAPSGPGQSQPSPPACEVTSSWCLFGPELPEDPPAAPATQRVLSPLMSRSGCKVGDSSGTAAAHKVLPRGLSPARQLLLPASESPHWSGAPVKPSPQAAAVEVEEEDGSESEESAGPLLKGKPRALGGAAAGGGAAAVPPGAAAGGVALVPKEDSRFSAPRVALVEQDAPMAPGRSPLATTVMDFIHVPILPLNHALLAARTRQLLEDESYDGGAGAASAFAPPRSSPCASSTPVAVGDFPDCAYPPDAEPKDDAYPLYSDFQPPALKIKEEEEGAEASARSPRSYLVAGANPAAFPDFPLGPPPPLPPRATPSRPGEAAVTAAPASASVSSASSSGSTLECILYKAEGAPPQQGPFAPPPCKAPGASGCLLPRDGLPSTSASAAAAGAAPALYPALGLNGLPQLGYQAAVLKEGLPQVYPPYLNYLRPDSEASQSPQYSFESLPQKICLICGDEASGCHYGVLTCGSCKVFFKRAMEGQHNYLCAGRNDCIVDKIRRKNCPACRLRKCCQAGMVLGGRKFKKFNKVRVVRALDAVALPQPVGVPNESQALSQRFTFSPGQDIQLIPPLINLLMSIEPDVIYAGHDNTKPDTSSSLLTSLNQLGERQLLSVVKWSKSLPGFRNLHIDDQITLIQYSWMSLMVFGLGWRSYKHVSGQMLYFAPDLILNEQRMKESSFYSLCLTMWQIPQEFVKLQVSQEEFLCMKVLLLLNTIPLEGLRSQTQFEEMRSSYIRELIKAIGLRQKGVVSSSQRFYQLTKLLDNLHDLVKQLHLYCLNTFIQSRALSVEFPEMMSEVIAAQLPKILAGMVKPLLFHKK

[7] = 50 mg dose; cited from earlier work

Structure (SMILES)	HIV-1 levels in macrophages [1]	% HIV-1 levels / viral replication in T-lymphocyte cultures [2]	health / cell growth of T-lymphocyte cultures [3]	cell viability in macrophages [4]	extent of metabolism [5]	binding affinity for progesterone receptors [6]	Na+/K+ effect [7]
C[C@]12CCC(=O)C=C1C=C[C@@H]1[C@@H]2CC[C@@]2(C)[C@H]1CC[C@@]2(O)CCC(=O)O [potassium canrenoate]	decreased in a dose dependent fashion	decreased in a dose dependent manner	remain healthy at all concentrations	little effect on cell viability	–	–	–
CC(=O)S[C@@H]1CC2=CC(=O)CC[C@]2(C)[C@H]2CC[C@@]3(C)[C@@H](CC[C@@]34CCC(=O)O4)[C@H]12 [spironolactone, 17-hydroxy-7-alpha-mercapto-3oxo-17-alpha-pregn-4ene-21-carboxylic acid gamma-lactone acetate]	–	decreased in a dose dependent manner	remain healthy at all concentrations	–	extensively metabolised	–	–
COC(=O)[C@@H]1CC2=CC(=O)CC[C@]2(C)[C@@]23O[C@@H]2C[C@@]2(C)[C@@H](CC[C@@]24CCC(=O)O4)[C@H]13 [Epoxymexrenone, epoxymexrenone]	–	–	–	–	–	reduced	equipotent with spironolactone
